Common to all, as to format: in vivo
The test system of assay [1] is wild oats (Avena fatua). Nature of the assay: Postemergence herbicidal activity, wild oats. The note with it: Avena fatua, post-emergence, 336 h, Post, 2 lb/A; read-out: % control, Wild oat. The method, boiled down: (§1)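 Step one: plant crop and weed seeds in soil flats. Step two: spray the acetone-dissolved, water-diluted compound (carrier 50 gal/A, dose in lb/A) immediately for preemergence, or after two weeks' growth for postemergence. Step three: about two weeks on, rate phytotoxicity as percent killed.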

In assay [2] the test system is foxtail (Setaria spp.). Nature of the assay: Postemergence herbicidal activity, foxtail. As to conditions: Setaria, post-emergence, 336 h, Post, 2 lb/A. The essentials: as §1
For assay [3], the system named is cocklebur (Xanthium pensylvanicum). Nature of the assay: Preemergence herbicidal activity, cocklebur. The note with it: Xanthium strumarium, pre-emergence, 336 h, 2 lb/A. The method, boiled down:
as §1

Assay [4] deals with foxtail (Setaria spp.). Nature of the assay: Preemergence herbicidal activity, foxtail. As to conditions: Setaria, pre-emergence, 336 h; Pre, 2 lb/A. The essentials:
as §1

Assay [5] has as its system yellow nutsedge (Cyperus esculentus). Nature of the assay: Preemergence herbicidal activity, yellow nutsedge. As to conditions: Cyperus, pre-emergence, 336 h, 2 lb/A. The essentials: as §1
For assay [6], the system named is barnyardgrass (Echinochloa crusgalli). Nature of the assay: Preemergence herbicidal activity, barnyardgrass. As to conditions: Echinochloa crus-galli, pre-emergence, 336 h; Pre, 2 lb/A. The method, boiled down: (§2)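 Application rates are expressed as lb/A, with the compound taken up in acetone, then water, and sprayed at a 50 gal/acre-equivalent carrier volume. Treatment timing: immediately post-sowing for preemergence; two weeks after germination for postemergence.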

For assay [7] the test system is unchanged. Nature of the assay: Postemergence herbicidal activity, barnyardgrass. The note with it: Echinochloa crus-galli, post-emergence, 336 h; Post, 2 lb/A. The method, boiled down:
as §2

In assay [8] the test system is downybrome (Bromus tectorum). Nature of the assay: Postemergence herbicidal activity, downybrome. As to conditions: Bromus tectorum, post-emergence, 336 h, Post, 2 lb/A. The method, boiled down:
as §1

In assay [9] the test system is marigold (Tagetes spp.). Nature of the assay: Postemergence herbicidal activity, marigold. The note with it: post-emergence, 336 h, 2 lb/A. The method, boiled down: as §1
In assay [10] the test system is yellow nutsedge (Cyperus esculentus). Nature of the assay: Postemergence herbicidal activity, yellow nutsedge. As to conditions: Cyperus, post-emergence, 336 h, 2 lb/A. The essentials:
as §1

Assay [11] has as its system velvetleaf (Abutilon theophrasti). Nature of the assay: Postemergence herbicidal activity, velvetleaf. As to conditions: Abutilon theophrasti, post-emergence, 336 h, 2 lb/A. The essentials:
as §2

In assay [12] the test system is wild oats (Avena fatua). Nature of the assay: Preemergence herbicidal activity, wild oats. The note with it: Avena fatua, pre-emergence, 336 h, Pre, 2 lb/A; read-out: % control, Wild oat. The essentials: as §1
Assay [13] has as its system tomato (Lycopersicon esculentum). Nature of the assay: Postemergence herbicidal activity, tomato. The note with it: Solanum lycopersicum, post-emergence, 336 h, Post, 2 lb/A. The essentials: as §1
Assay [14] relates to velvetleaf (Abutilon theophrasti). Nature of the assay: Preemergence herbicidal activity, velvetleaf. As to conditions: Abutilon theophrasti, pre-emergence, 336 h; Pre, 2 lb/A. The essentials:
as §1

For assay [15], the system named is marigold (Tagetes spp.). Nature of the assay: Preemergence herbicidal activity, marigold. The note with it: pre-emergence, 336 h, 2 lb/A. The method, boiled down:
as §1

Assay [16] relates to cocklebur (Xanthium pensylvanicum). Nature of the assay: Postemergence herbicidal activity, cocklebur. As to conditions: Xanthium strumarium, post-emergence, 336 h, 2 lb/A. The method, boiled down: as §1
Assay [17] concerns tomato (Lycopersicon esculentum). Nature of the assay: Preemergence herbicidal activity, tomato. The note with it: Solanum lycopersicum, pre-emergence, 336 h; Pre, 2 lb/A. The essentials:
as §1

Assay [18] concerns morningglory (Ipomoca spp.). Nature of the assay: Preemergence herbicidal activity, morningglory. The note with it: Ipomoea, pre-emergence, 336 h, 2 lb/A. The essentials: as §1
Assay [19] relates to downybrome (Bromus tectorum). Nature of the assay: Preemergence herbicidal activity, downybrome. As to conditions: Bromus tectorum, pre-emergence, 336 h, Pre, 2 lb/A. The essentials: as §1
Assay [20] has as its system morningglory (Ipomoca spp.). Nature of the assay: Postemergence herbicidal activity, morningglory. As to conditions: Ipomoea, post-emergence, 336 h, 2 lb/A. The method, boiled down: as §1

The values below come from patent US4335249A, “Herbicidal diphenyl ethers, sulfides, sulfoxides and sulfones” (Rohm and Haas Company, priority 1976, dated 1982).

As to `CCCCCCOC(=O)C(C)Oc1ccc(Oc2ccc(C(F)(F)F)cc2Cl)cc1` (stereo not drawn) [Example 36], the pest or weed control at 2241.7 g/ha in the assay with wild oats (Avena fatua) [1] stood at 100%; in the assay on foxtail (Setaria spp.) [2], 100%; in assay [3], 0%; in the assay with foxtail (Setaria spp.) [4], 100%; in assay [5], 0%; in assay [6] it was 100%. Besides, the pest or weed control at 2241.7 g/ha in [7] stood at 100%; in [8], 60%; in the assay with marigold (Tagetes spp.) [9] it was 0%; in assay [10], 0%; in assay [11], 0%; with wild oats (Avena fatua) [12], 0%. The pest or weed control at 2241.7 g/ha (in assay [13]; in assay [14]; with marigold (Tagetes spp.) [15]; in assay [16]; in [17]; in [18]) was 0% throughout. Besides, the pest or weed control at 2241.7 g/ha in [19] and in assay [20] was 0% throughout.

As for `CCOC(=O)C(C)Oc1ccc(Oc2ccc(C(F)(F)F)cc2C#N)cc1` (stereo not drawn) [Example 37], the pest or weed control at 2241.7 g/ha is 90% with wild oats (Avena fatua) [1]; 95% in the assay on foxtail (Setaria spp.) [2]; 0% in [3]; 60% in the assay on foxtail (Setaria spp.) [4]; 0% in [5]; 100% in assay [6]. The pest or weed control at 2241.7 g/ha in assay [7] was 100%; in [8], 90%; with marigold (Tagetes spp.) [9], 10%; in [10], 0%; in [11], 0%; in the assay on wild oats (Avena fatua) [12] it was 0%. The pest or weed control at 2241.7 g/ha in [13] turned out to be 30%; in assay [14], 20%; with marigold (Tagetes spp.) [15], 0%; in assay [16], 30%; in [17] it was 20%; in [18], 40%. Moreover, the pest or weed control at 2241.7 g/ha in [19] amounted to 95%; in assay [20], 10%.

As to `CCOC(=O)CCC(C)Oc1ccc(Oc2ccc(C(F)(F)F)cc2Cl)cc1` (stereo not drawn) [Example 38], the pest or weed control at 2241.7 g/ha with wild oats (Avena fatua) [1] stood at 99%; with foxtail (Setaria spp.) [2], 100%; in [3], 0%; with foxtail (Setaria spp.) [4], 100%; in assay [5] it was 0%; in [6] it was 90%. The pest or weed control at 2241.7 g/ha was 100% in [7]; 90% in assay [8]; 0% in the assay with marigold (Tagetes spp.) [9]; 0% in assay [10]; 0% in assay [11]; 0% in the assay on wild oats (Avena fatua) [12]. Also, the pest or weed control at 2241.7 g/ha (in assay [13]; in assay [14]; in the assay with marigold (Tagetes spp.) [15]; in assay [16]; in [17]; in assay [18]) was 0% in each case. Also, the pest or weed control at 2241.7 g/ha in [19] and in assay [20] was 0% in each case.

Consider `CCOC(=O)CCC(C)Oc1ccc(Oc2ccc(C(F)(F)F)cc2)cc1` (stereo not drawn) [Example 39], for which the pest or weed control at 2241.7 g/ha was found to be 100% in the assay with wild oats (Avena fatua) [1]; 100% with foxtail (Setaria spp.) [2]; 0% in assay [3]; 99% in the assay on foxtail (Setaria spp.) [4]; 0% in assay [5]; 99% in [6]. For the same compound, the pest or weed control at 2241.7 g/ha in [7] was found to be 100%; in assay [8], 100%; in the assay with marigold (Tagetes spp.) [9], 0%; in [10], 0%; in [11], 0%; in the assay with wild oats (Avena fatua) [12], 50%. The pest or weed control at 2241.7 g/ha is 20% in assay [13]; 0% in assay [14]; 0% in the assay with marigold (Tagetes spp.) [15]; 60% in [16]; 0% in assay [17]; 0% in assay [18]. The values for the pest or weed control at 2241.7 g/ha in [19] and in [20] were 60% and 40%, respectively.

As for `CC(Oc1ccc(Oc2ccc(C(F)(F)F)cc2)cc1)C(N)=O` (stereo not drawn) [Example 40, 2-[4-(4-trifluoromethylphenoxy)phenoxy] propanamide], the pest or weed control at 2241.7 g/ha in the assay with wild oats (Avena fatua) [1] is 95%; with foxtail (Setaria spp.) [2], 95%; in [3], 0%; in the assay with foxtail (Setaria spp.) [4] it was 100%; in assay [5], 0%; in [6] it was 99%. Moreover, the pest or weed control at 2241.7 g/ha in [7] stood at 99%; in [8] it was 40%; in the assay on marigold (Tagetes spp.) [9], 0%; in assay [10], 0%; in assay [11] it was 0%; in the assay with wild oats (Avena fatua) [12], 60%. The pest or weed control at 2241.7 g/ha in [13] came to 0%; in assay [14], 0%; in the assay on marigold (Tagetes spp.) [15], 0%; in assay [16], 20%; in assay [17] it was 0%; in assay [18] it was 0%. Further, the pest or weed control at 2241.7 g/ha in assay [19] came out at 80%; in assay [20], 0%.

Consider `CC(C#N)Oc1ccc(Oc2ccc(C(F)(F)F)cc2)cc1` (stereo not drawn) [Example 41, 2-[4-(4-trifluoromethylphenoxy)phenoxy] propionitrile], for which the pest or weed control at 2241.7 g/ha was determined as 99% with wild oats (Avena fatua) [1]; 60% in the assay with foxtail (Setaria spp.) [2]; 0% in assay [3]; 100% in the assay with foxtail (Setaria spp.) [4]; 0% in [5]; 99% in assay [6]. Further, the pest or weed control at 2241.7 g/ha is 100% in assay [7]; 40% in assay [8]; 0% with marigold (Tagetes spp.) [9]; 0% in [10]; 0% in assay [11]; 70% with wild oats (Avena fatua) [12]. The pest or weed control at 2241.7 g/ha (in [13]; in assay [14]; with marigold (Tagetes spp.) [15]; in assay [16]; in assay [17]; in assay [18]) was 0% throughout. The values for the pest or weed control at 2241.7 g/ha in [19] and in [20] were 80% and 0%, respectively.
